Like-named read-outs stand apart in the source and are kept apart here.
Columns and labels:
Type in all cases: cell-based
[1] = biological target: T1, CDK2-NanoLuc fusion with CCNE1 in 293T or 293 cells (Homo sapiens, UniProt P24941); test: NanoBRET Target Engagement (TE) Intracellular Kinase Assay, CDK2/CCNE1; settings: NanoBRET TE intracellular kinase assay, 2-hour incubation, read-out: NanoBRET-CDK2/E1 IC50
T1 construct: host or cells: 293T (ATCC CRL-3216) or 293 (ATCC CRL-1573)
Experimental: (§1) Inhibitory effects of compounds were measured in NanoBRET TE Intracellular Kinase Assay. […] Cells were co-transfected with 1 μg/mL of CDK-NanoLuc Fusion Vector (Promega; NV2701 for CDK1, NV2781 for CDK2, NV2811 for CDK4, NV2841 for CDK6) and 1 μg/mL of the corresponding Cyclin Expression Vector (Promega; NV2601 for CCNB1, NV2641 for CCNE1, NV2621 for CCND1, NV2631 for CCND3) using FuGENE HD Transfection Reagent (Promega; E2311). […] 20 uL/well of 3× Intracellular TE Nano-Glo Substrate/Inhibitor (Promega; N2162) were added to 384-well plates and incubated for 3 minutes at room temperature. NanoBRET signals (donor emission wavelength at 450 nm, acceptor emission wavelength at 610 nm) were measured using Envision plate reader (PerkinElmer). NanoBRET ratio was calculated by: BRET Ratio=raw signal for acceptor/raw signal for donor. Dose response curve normalized to DMSO control was plotted using four-parameter logistic model for IC50 calculation.

[2] = biological target: T2, CDK4-NanoLuc fusion with CCND1 in 293T or 293 cells (Homo sapiens, UniProt P11802); test: NanoBRET Target Engagement (TE) Intracellular Kinase Assay, CDK4/CCND1; settings: NanoBRET TE intracellular kinase assay, 2-hour incubation, read-out: NanoBRET-CDK4/D1 IC50
T2 construct: host or cells: 293T (ATCC CRL-3216) or 293 (ATCC CRL-1573)
Experimental: as §1

[3] = tested on: Phospho-Rb Ser807/811 in OVCAR3 cells; test: OVCAR3 Phospho-Rb Ser807/811 HTRF assay; settings: OVCAR3 cells, Phospho-Rb Ser807/811 HTRF, 1 hour incubation, read-out: pRb-OVCAR3 IC50
Experimental: Cells were trypsinized and resuspended in 1 mM hydroxyurea (Sigma; H8627), 90% RPMI and 10% fetal bovine serum. […] Dose response curve normalized to DMSO control was plotted using four-parameter logistic model for IC50 calculation.

T2 sequence (P11802 whole entry, the tested form may be a part): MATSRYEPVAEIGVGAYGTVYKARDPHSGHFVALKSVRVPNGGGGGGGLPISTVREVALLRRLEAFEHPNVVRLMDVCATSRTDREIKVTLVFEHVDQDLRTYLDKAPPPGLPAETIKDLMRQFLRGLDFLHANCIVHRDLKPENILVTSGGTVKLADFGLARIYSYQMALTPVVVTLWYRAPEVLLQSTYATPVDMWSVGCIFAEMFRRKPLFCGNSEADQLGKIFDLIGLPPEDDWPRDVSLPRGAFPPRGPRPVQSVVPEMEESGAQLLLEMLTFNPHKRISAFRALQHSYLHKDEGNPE
T2 sequence (P24385 whole entry partner, the tested form may be a part): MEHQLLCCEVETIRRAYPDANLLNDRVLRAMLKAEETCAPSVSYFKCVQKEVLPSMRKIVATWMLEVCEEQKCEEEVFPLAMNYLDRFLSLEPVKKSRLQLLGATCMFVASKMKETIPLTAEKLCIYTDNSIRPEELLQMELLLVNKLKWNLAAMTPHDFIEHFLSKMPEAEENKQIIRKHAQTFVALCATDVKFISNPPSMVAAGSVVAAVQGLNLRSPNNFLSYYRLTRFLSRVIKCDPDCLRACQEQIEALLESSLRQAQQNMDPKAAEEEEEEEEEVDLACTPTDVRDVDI

| IC50 [1] | IC50 [2] | IC50 ([3]; Homo sapiens, OVCAR-3, 1 h) | IC50 [3] | SMILES |
| --- | --- | --- | --- | --- |
| 2.68 nM | 1.58 µM | 23.5 nM |  | CCN(CC)C(=O)O[C@@H]1CC[C@H](c2cc(NC(=O)COc3cc(OC)cc(O)c3C=O)n[nH]2)C1 [Compound 180] |
| 7.62 nM | 6.99 µM | 30 nM |  | COc1cc(O)c(C=O)c(OCC(=O)Nc2cc([C@H]3CC[C@@H](OC(=O)N4CC[C@H](C#N)C4)C3)[nH]n2)c1 [Compound 152] |
| 5.95 nM | 0.512 µM |  | 13.6 nM | COc1cc(O)c(C=O)c2c1CC(C(=O)Nc1cc([C@H]3CC[C@@H](OC(=O)NN(C)CC(F)(F)F)C3)[nH]n1)C2 (single isomer, unassigned) [Compound 264, (1R,3S)-3-(3-((*)-4-formyl-5-hydroxy-7-methoxy-2,3-dihydro-1H-indene-2-carboxamido)-1H-pyrazol-5-yl)cyclopentyl 2-methyl-2-(2,2,2-trifluoroethyl)hydrazine-1-carboxylate] |
| 2.22 nM | 1.42 µM | 16.9 nM |  | COc1cc(O)c(C=O)c(OCC(=O)Nc2cc([C@H]3CC[C@@H](OC(=O)NC4(CF)CC4)C3)[nH]n2)c1 [Compound 136] |
| 63.3 nM | 0.735 µM |  | 7740 nM | COc1cc(O)c(C=O)c2c1CC(C(=O)Nc1cc([C@H]3CC[C@@H](OC(=O)N4CCCN4C)C3)[nH]n1)C2 (single isomer, unassigned) [Compound 263, (1R,3S)-3-(3-((*)-4-formyl-5-hydroxy-7-methoxy-2,3-dihydro-1H-indene-2-carboxamido)-1H-pyrazol-5-yl)cyclopentyl 2-methylpyrazolidine-1-carboxylate] |
| 25.9 nM | 8.53 µM | 98.3 nM |  | COc1cc(O)c(C=O)c(OCC(=O)Nc2cc([C@H]3CC[C@@H](OC(=O)NCC#N)C3)[nH]n2)c1 [Compound 127] |
| 4.5 nM | 4.36 µM | 32.3 nM |  | COc1cc(O)c(C=O)c(OCC(=O)Nc2cc([C@H]3CC[C@@H](OC(=O)NCCOC(F)F)C3)n[nH]2)c1 [Compound 116] |
| 2.31 nM | 7.86 µM | 26.4 nM |  | COc1cc(O)c(C=O)c(OCC(=O)Nc2cc([C@H]3CC[C@@H](OC(=O)N[C@H](C)CC(F)F)C3)[nH]n2)c1 [Compound 119] |
| 1.18 nM | 2.84 µM | 14.2 nM |  | COc1cc(O)c(C=O)c(OCC(=O)Nc2cc([C@H]3CC[C@@H](OC(=O)N4CCCCC4)C3)[nH]n2)c1 [Compound 234, (1R,3S)-3-(3-(2-(2-formyl-3-hydroxy-5-methoxyphenoxy)acetamido)-1H-pyrazol-5-yl)cyclopentyl piperidine-1-carboxylate] |
| 2.19 nM | 8.09 µM | 22 nM |  | COc1cc(O)c(C=O)c(OCC(=O)Nc2cc([C@H]3CC[C@@H](OC(=O)NCCOC(F)(F)F)C3)n[nH]2)c1 [Compound 117] |
| 2.2 nM | > 10 µM | 39.3 nM |  | COc1cc(O)c(C=O)c(OCC(=O)Nc2cc([C@H]3CC[C@@H](OC(=O)N4C5CCC(C5)N4C)C3)[nH]n2)c1 (stereo partly drawn) [Compound 272, (1R,3S)-3-(3-(2-(2-formyl-3-hydroxy-5-methoxyphenoxy)acetamido)-1H-pyrazol-5-yl)cyclopentyl 3-methyl-2,3-diazabicyclo[2.2.1]heptane-2-carboxylate] |
| 15.5 nM | 0.132 µM |  | 567 nM | COc1cc(O)c(C=O)c2c1CC(C(=O)Nc1cc([C@H]3CC[C@@H](OC(=O)NN(C)CC(F)(F)F)C3)[nH]n1)C2 (single isomer, unassigned) [Compound 265, (1R,3S)-3-(3-((*)-4-formyl-5-hydroxy-7-methoxy-2,3-dihydro-1H-indene-2-carboxamido)-1H-pyrazol-5-yl)cyclopentyl 2-methyl-2-(2,2,2-trifluoroethyl)hydrazine-1-carboxylate] |
| 3.47 nM | 2.89 µM | 36.1 nM |  | COc1cc(O)c(C=O)c(OCC(=O)Nc2cc([C@H]3CC[C@@H](OC(=O)N(C(C)C)C(C)C)C3)[nH]n2)c1 [Compound 151] |
| 3.12 nM | 1.54 µM | 53.4 nM |  | COc1cc(O)c(C=O)c(OCC(=O)Nc2cc([C@H]3CC[C@@H](OC(=O)N4C[C@H](F)C[C@@H]4C)C3)n[nH]2)c1 [Compound 125] |
| 2.82 nM | 1.08 µM | 16.1 nM |  | COc1cc(O)c(C=O)c(OCC(=O)Nc2cc([C@H]3CC[C@@H](OC(=O)NC4(C(F)F)CC4)C3)[nH]n2)c1 [Compound 140, (1R,3S)-3-{5-[2-(2-formyl-3-hydroxy-5-methoxyphenoxy)acetamido]-2H-pyrazol-3-yl}cyclopentyl N-[1-(difluoromethyl)cyclopropyl]carbamate] |
| 9.37 nM | 5 µM | 37.8 nM |  | COc1cc(O)c(C=O)c(OCC(=O)Nc2cc([C@H]3CC[C@@H](OC(=O)N4CCN(C)CC4)C3)[nH]n2)c1 [Compound 195] |
| 6.25 nM | > 10 µM |  | 48.6 nM | COc1cc(O)c(C=O)c2c1CC(C(=O)Nc1cc([C@H]3C[C@@H](OC(=O)N(C)N(C)C)C3)n[nH]1)C2 (single isomer, unassigned) [Compound 270] |
| 1.94 nM | 1.24 µM | 16.3 nM |  | CCOc1cc(O)c(C=O)c(OCC(=O)Nc2cc([C@H]3CC[C@@H](OC(=O)NC4(C)CC4)C3)[nH]n2)c1 [Compound 115] |
| 2.01 nM | 0.236 µM | 12.6 nM |  | COc1cc(O)c(C=O)c2c1CC(C(=O)Nc1cc([C@H]3CC[C@@H](OC(=O)NC(C)(C)C)C3)[nH]n1)C2 (single isomer, unassigned) [Compound 283, (1R,3S)-3-(3-((*)-4-formyl-5-hydroxy-7-methoxy-2,3-dihydro-1H-indene-2-carboxamido)-1H-pyrazol-5-yl)cyclopentyl tert-butylcarbamate] |
| 4.2 nM | 3.36 µM | 57.4 nM |  | COCC(C)(C)NC(=O)O[C@@H]1CC[C@H](c2cc(NC(=O)COc3cc(OC)cc(O)c3C=O)n[nH]2)C1 [Compound 176] |
| 2.08 nM | 5.6 µM | 54.1 nM |  | COc1cc(O)c(C=O)c(OCC(=O)Nc2cc([C@H]3CC[C@@H](OC(=O)NCC4CCC4)C3)[nH]n2)c1 [Compound 178] |
| 20.2 nM | > 10 µM | 385 nM |  | COc1cc(O)c(C=O)c(OCC(=O)Nc2cc([C@H]3CC[C@@H](OC(=O)NC4COC4)C3)[nH]n2)c1 [Compound 149] |
| 3.17 nM | > 10 µM | 54.7 nM |  | CCN(C)NC(=O)O[C@@H]1CC[C@H](c2cc(NC(=O)COc3cc(OC)cc(O)c3C=O)n[nH]2)C1 [Compound 274, (1R,3S)-3-(3-(2-(2-formyl-3-hydroxy-5-methoxyphenoxy)acetamido)-1H-pyrazol-5-yl)cyclopentyl 2-ethyl-2-methylhydrazine-1-carboxylate] |
| 3.99 nM | 5.34 µM | 34.2 nM |  | COc1cc(O)c(C=O)c(OCC(=O)Nc2cc([C@H]3CC[C@@H](OC(=O)N(O)C(C)C)C3)[nH]n2)c1 [Compound 173] |
| 13.1 nM | > 10 µM | 142 nM |  | COc1cc(O)c(C=O)c(OCC(=O)Nc2cc([C@H]3CC[C@@H](OC(=O)NC[C@H]4CCO4)C3)[nH]n2)c1 [Compound 143] |
| 4.1 nM | > 10 µM | 95.9 nM |  | COc1cc(O)c(C=O)c(OCC(=O)Nc2cc([C@H]3CC[C@@H](OC(=O)N4CCCN4C)C3)[nH]n2)c1 [Compound 278, (1R,3S)-3-(3-(2-(2-formyl-3-hydroxy-5-methoxyphenoxy)acetamido)-1H-pyrazol-5-yl)cyclopentyl 2-methylpyrazolidine-1-carboxylate] |
| 337 nM | > 10 µM | 368 nM |  | COc1cc(O)c(C=O)c(OCC(=O)Nc2cc([C@H]3CC[C@@H](OC(=O)NCCN(C)C)C3)[nH]n2)c1 [Compound 188] |
| 9.6 nM | 5.88 µM | 301 nM |  | COc1cc(O)c(C=O)c(OCC(=O)Nc2cc([C@H]3CC[C@@H](OC(=O)Nc4ccccc4)C3)[nH]n2)c1 [Compound 164] |
| 25 nM | > 10 µM | 127 nM |  | COc1cc(O)c(C=O)c(OCC(=O)Nc2cc([C@H]3CC[C@@H](OC(=O)N4CC5(CCN5C)C4)C3)[nH]n2)c1 [Compound 191] |

| SMILES | IC50 [1] | IC50 [2] | IC50 ([3]; Homo sapiens, OVCAR-3, 1 h) | IC50 [3] |
| --- | --- | --- | --- | --- |
| O=Cc1c(O)cccc1OCC(=O)Nc1cc([C@H]2CC[C@@H](OC(=O)N3C4COCC3C4)C2)[nH]n1 [Compound 196] | 6.2 nM | 7.36 µM | 102 nM |  |
| O=Cc1c(O)cc(Cl)cc1OCC(=O)Nc1cc([C@H]2CC[C@@H](OC(=O)N3C4COCC3C4)C2)[nH]n1 [Compound 183] | 10.1 nM | 4.2 µM | 140 nM |  |

Source: US20250289789A1, “REVERSIBLE LYSINE COVALENT MODIFIERS OF CDK2 AND USES THEREOF” (Terremoto Biosciences, Inc., priority 2023, published 2025)
